Assays:
[1] = system: NSCLC tumors expressing EGFR G719S; assay: PDX tumor growth, EGFR G719S model; format: in vivo, NSG mice; settings: mice harboring PDXs with mutations
Protocol: Dot plot of mutant/WT IC50 values of Ba/F3 cells expressing PACC mutations and treated with indicated classes of EGFR TKIs. […] Bars are representative of average mutant/WT IC50 values±SEM for each class of EGFR TKI and all PACC cell lines. p-values were determined by ANOVA analysis with unequal SD as determined by Brown-Forsythe test to determined differences in SD. Holm-Sidak's multiple comparisons test was used to determine differences between groups. […] Tumors were measured three times per week and symbols are average of tumor volumes±SEM. Mice were randomized into six groups. Mice received drug 5 days per week, and mice were euthanized at day 28 to harvest tumors. […] Heat map with unsupervised hierarchical clustering of log (Mutant/WT) ratios from Ba/F3 cells expressing indicated mutations after 72 hours of indicated drug treatment. Squares are representative of the average of n=3 replicates. […] Bars are representative of average mutant/WT IC50 values±SEM for each class of EGFR TKI and indicated cell lines. p-values were determined by ANOVA analysis with unequal SD as determined by Brown-Forsythe test to determined differences in SD. […]
Dot plot of percent change in tumor volume on day 28 of tumors described in FIG. 3C. […] Statistical differences were determined by ordinary one-way ANOVA with post-hoc Tukey's multiple comparisons test to determined differences between groups. […]

[2] = system: classical EGFR mutant NSCLC; settings: Phase III; treatment-naive patients; cited from earlier work
[3] = system: NSCLC harboring atypical EGFR mutations; settings: Phase II KCSG-LU15-09; treatment-naive patients harboring atypical EGFR mutations; cited from earlier work

For C=CC(=O)Nc1cc(Nc2nccc(-c3cn(C)c4ccccc34)n2)c(OC)cc1N(C)CCN(C)C [Osimertinib], the “tumor sensitivity in vivo” value [1] is listed as “resistant”, the “median overall survival (mOS)” value [2] is listed as 38.6 months and the “median progression free survival (mPFS)” value [2] is listed as 18.9 months. The “objective response rate (ORR)” value [2] was 80%, the ORR [3] was 50% and the mPFS [3] was 8.2 months.
